# Results reported in US9394305B2, “Substituted imidazo[1,2-a]pyridine compounds as tropomyosin receptor kinase a (TrkA) inhibitors” (Dr. Reddy's Laboratories Ltd., priority 2014, dated 2016).
# Target: T1, TrkA kinase (Homo sapiens, UniProt P04629)
# T1 construct: purchased Upstate, USA
# Experiment: In vitro TrkA inhibitory activity using TR-FRET assay
# Format: biochemical
# Conditions: 5 ng TrkA, 500 μM ATP, values given as bins, read-out: TrkA inhibition in-vitro IC50
# Method: Compounds were screened in the TR-FRET assay with TrkA kinase. 5 ng of TrkA [Upstate, USA] kinase was used for assay. The compound was incubated with the kinase for 30 minutes at 20-35° C. After the incubation, substrate mix [40 nM Ultra light poly GT (Perkin Elmer, USA) and 500 μM ATP] was added. The above reaction was stopped by the addition of 40 mM EDTA after 30 minutes. The Eu-labelled antiphospho-tyrosine antibody [Perkin Elmer, USA] was added at 0.5 nM and the fluorescence emission at 615 nm/665 nm [excitation at 340 nm] was measured. The compounds were initially screened at 100 nM, 1 μM and 10 μM concentrations. The potent compounds with >25% inhibition at 1 μM of TrkA were taken for the full dose response studies. The final DMSO concentration in the assay was […]. For IC50 determination, ⅓^rd serial dilution was made from the 20 mM DMSO stock solution. 2 μl of these were transferred to the test wells containing 20 μl reaction mixture [Total reaction volume 22 μl]. The fluorescence was measured in Perkin Elmer Wallac 1420 Multilabel Counter Victor 3. The IC50 was determined by fitting the dose response data to a sigmoidal curve fitting equation using GraphPad Prism software version 5.
# T1 sequence (P04629 33-796): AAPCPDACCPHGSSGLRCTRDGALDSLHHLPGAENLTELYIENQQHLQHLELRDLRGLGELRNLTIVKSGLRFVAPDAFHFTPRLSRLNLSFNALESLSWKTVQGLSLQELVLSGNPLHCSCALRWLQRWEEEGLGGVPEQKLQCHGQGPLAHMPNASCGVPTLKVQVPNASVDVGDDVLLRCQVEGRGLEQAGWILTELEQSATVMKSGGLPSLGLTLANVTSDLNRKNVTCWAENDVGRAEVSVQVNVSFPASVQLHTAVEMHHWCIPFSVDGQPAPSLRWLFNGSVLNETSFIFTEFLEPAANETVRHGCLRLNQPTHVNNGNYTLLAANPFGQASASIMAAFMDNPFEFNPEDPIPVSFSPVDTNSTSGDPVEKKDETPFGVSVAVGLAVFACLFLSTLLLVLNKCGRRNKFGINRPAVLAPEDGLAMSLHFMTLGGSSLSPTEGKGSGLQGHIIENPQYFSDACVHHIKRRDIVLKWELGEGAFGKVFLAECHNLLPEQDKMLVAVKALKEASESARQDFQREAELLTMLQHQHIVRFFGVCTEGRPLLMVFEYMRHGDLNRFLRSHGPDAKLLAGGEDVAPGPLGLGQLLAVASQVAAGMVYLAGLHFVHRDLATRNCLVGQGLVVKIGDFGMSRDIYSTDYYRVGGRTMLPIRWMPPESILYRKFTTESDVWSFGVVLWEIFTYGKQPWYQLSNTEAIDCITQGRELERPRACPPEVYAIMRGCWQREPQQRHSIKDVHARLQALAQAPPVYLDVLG
row,SMILES,IC50 [nM]
1,"CCOC(=O)CNC(=O)c1cnc2ccc(N3CCC[C@H]3c3cc(F)ccc3F)cn12 (single isomer, unassigned) [Example 18, Ethyl 2-(6-(2-(2,5-difluorophenyl)pyrrolidin-1-yl)imidazo[1,2-a]pyridine-3-carboxamido)acetate]",100 to 500
2,"O=C(O)CNC(=O)c1cnc2ccc(N3CCC[C@H]3c3cc(F)ccc3F)cn12 (single isomer, unassigned) [Example 19, 2-(6-(2-(2,5-difluorophenyl)pyrrolidin-1-yl)imidazo[1,2-a]pyridine-3-carboxamido)acetic acid]",100 to 500
3,"O=C(Nc1ccc(F)cc1)c1cnc2ccc(N3CCCC3c3cc(F)ccc3F)cn12 (stereo not shown) [Example 1, 6-(2-(2,5-difluorophenyl)pyrrolidin-1-yl)-N-(4-fluorophenyl)imidazo[1,2-a]pyridine-3-carboxamide]",≤ 50
4,"O=C(Nc1cnc2ccc(N3CCCC3c3cc(F)ccc3F)cn12)N1CC[C@H](O)C1 (stereo partly shown) [Example 2, (3 S)—N-(6-(2-(2,5-difluorophenyl)pyrrolidin-1-yl)imidazo[1,2-a]pyridin-3-yl)-3-hydroxypyrrolidine-1-carboxamide]",100 to 500
5,"O=C(c1cnc2ccc(N3CCCC3c3cc(F)ccc3F)cn12)N1CC[C@H](O)C1 (stereo partly drawn) [Example 3, (6-(2-(2,5-difluorophenyl)pyrrolidin-1-yl)imidazo[1,2-a]pyridin-3-yl)((S)-3-hydroxypyrrolidin-1-yl)methanone]",≤ 50
6,"O=C(c1cnc2ccc(N3CCCC3c3cc(F)ccc3F)cn12)N1CC(O)C1 (stereo not shown) [Example 4, (6-(2-(2,5-difluorophenyl)pyrrolidin-1-yl)imidazo[1,2-a]pyridin-3-yl)(3-hydroxyazetidin-1-yl)methanone]",≤ 50
7,"O=C(NC(CO)CO)c1cnc2ccc(N3CCCC3c3cc(F)ccc3F)cn12 (stereo not shown) [Example 5, 6-(2-(2,5-difluorophenyl)pyrrolidin-1-yl)-N-(1,3-dihydroxypropan-2-yl)imidazo[1,2-a]pyridine-3-carboxamide]",≤ 50
8,"CN(C)C(=O)c1cnc2ccc(N3CCCC3c3cc(F)ccc3F)cn12 (stereo not shown) [Example 8, 6-(2-(2,5-difluorophenyl)pyrrolidin-1-yl)-N,N-dimethylimidazo[1,2-a]pyridine-3-carboxamide]",100 to 500
9,"O=C(c1ccc(F)cc1)c1cnc2ccc(N3CCCC3c3cc(F)ccc3F)cn12 (stereo not shown) [Example 10, (6-(2-(2,5-difluorophenyl)pyrrolidin-1-yl)imidazo[1,2-a]pyridin-3-yl)(4-fluorophenyl)methanone]",50 to 100
10,"CC(CO)(CO)NC(=O)c1cnc2ccc(N3CCC[C@@H]3c3cc(F)ccc3F)cn12 [Example 24, (R)-6-(2-(2,5-difluorophenyl)pyrrolidin-1-yl)-N-(1,3-dihydroxy-2-methylpropan-2-yl)imidazo[1,2-a]pyridine-3-carboxamide]",100 to 500
11,"O=C(NC[C@H](O)CO)c1cnc2ccc(N3CCC[C@@H]3c3cc(F)ccc3F)cn12 [Example 25, 6-((R)-2-(2,5-difluorophenyl)pyrrolidin-1-yl)-N—((S)-2,3-dihydroxypropyl)imidazo[1,2-a]pyridine-3-carboxamide]",50 to 100

# The next lines start with the values.
row,IC50 [nM],SMILES
1,≤ 50,"CCN(C)S(=O)(=O)NC(=O)c1cnc2ccc(N3CCCC3c3cc(F)ccc3O[C@@H]3CCOC3)cn12 (single isomer, unassigned) [Example 63]"
2,≤ 50,"CC1(S(=O)(=O)NC(=O)c2cnc3ccc(N4CCCCC4c4cc(F)ccc4F)cn23)CC1 (single isomer, unassigned) [Example 69, 6-(2-(2,5-difluorophenyl)piperidin-1-yl)-N-((1-methylcyclo-propyl)sulfonyl)imidazo[1,2-a]pyridine-3-carboxamide]"
3,100 to 500,"CN(CCF)S(=O)(=O)NC(=O)c1cnc2ccc(N3CCCC3c3cc(F)cc4c3OCCO4)cn12 (single isomer, unassigned) [Example 71, 6-(2-(7-fluoro-2,3-dihydrobenzo[b][1,4]dioxin-5-yl)pyrrolidin-1-yl)-N-(N-(2-fluoroethyl)-N-methylsulfamoyl)imidazo[1,2-a]pyridine-3-carboxamide]"
4,100 to 500,"CCN(C)S(=O)(=O)NC(=O)c1cnc2ccc(N3CCCC3c3cc(F)cc4c3OCCO4)cn12 (single isomer, unassigned) [Example 72, N-(N-ethyl-N-methylsulfamoyl)-6-(2-(7-fluoro-2,3-dihydrobenzo [b][1,4]dioxin-5-yl)pyrrolidin-1-yl)imidazo[1,2-a]pyridine-3-carboxamide]"
5,≤ 50,"O=C(c1cnc2ccc(N3CCCC3c3cc(F)ccc3F)cn12)N1CC(O)C1 (single isomer, unassigned) [Example 73, (6-(2-(2,5-difluorophenyl)pyrrolidin-1-yl)imidazo[1,2-a]pyridine-3 yl)(3-hydroxyazetidin-1-yl)methanone]"
6,100 to 500,"C[C@@H](CO)NC(=O)c1cnc2ccc(N3CCC[C@@H]3c3cc(F)ccc3F)cn12 [Example 28, 6-((R)-2-(2,5-difluorophenyl)pyrrolidin-1-yl)-N—((S)-1-hydroxypropan-2-yl)imidazo[1,2-a]pyridine-3-carboxamide]"
7,100 to 500,"O=C(NC1CCOCC1)c1cnc2ccc(N3CCC[C@@H]3c3cc(F)ccc3F)cn12 [Example 30, (R)-6-(2-(2,5-difluorophenyl)pyrrolidin-1-yl)-N-(tetrahydro-2H-pyran-4-yl)imidazo[1,2-a]pyridine-3-carboxamide]"
8,100 to 500,"CC(C)(C)S(=O)(=O)NC(=O)c1cnc2ccc(N3CCC[C@@H]3c3cc(F)ccc3F)cn12 [Example 31, (R)—N-(tert-butylsulfonyl)-6-(2-(2,5-difluorophenyl)pyrrolidin-1-yl)imidazo[1,2-a]pyridine-3-carboxamide]"
9,50 to 100,"CC1(S(=O)(=O)NC(=O)c2cnc3ccc(N4CCC[C@@H]4c4cc(F)ccc4F)cn23)CC1 [Example 32, (R)-6-(2-(2,5-difluorophenyl)pyrrolidin-1-yl)-N-((1-methylcyclopropyl)sulfonyl)imidazo[1,2-a]pyridine-3-carboxamide]"
10,100 to 500,"O=C(NS(=O)(=O)c1ccc(N2CC[C@H](O)C2)nc1)c1cnc2ccc(N3CCC[C@@H]3c3cc(F)ccc3F)cn12 [Example 33, 6-((R)-2-(2,5-difluorophenyl)pyrrolidin-1-yl)-N-((6-((S)-3-hydroxypyrrolidin-1-yl)pyridin-3-yl)sulfonyl)imidazo[1,2-a]pyridine-3-carboxamide]"

# Same assay, conditions: 5 ng TrkA, 500 μM ATP, values given as bins, read-out: TrkA inhibitory activity in-vitro IC50
row,SMILES,IC50 [nM]
1,"O=C(c1cnc2ccc(N3CCCC3c3cc(F)ccc3F)cn12)N1CCOCC1 (stereo not shown) [Example 6, (6-(2-(2,5-difluorophenyl)pyrrolidin-1-yl)imidazo[1,2-a]pyridin-3-yl)(morpholino)methanone]",1000 to 10000
2,"CN1CCN(C(=O)c2cnc3ccc(N4CCCC4c4cc(F)ccc4F)cn23)CC1 (stereo not shown) [Example 9, (6-(2-(2,5-difluorophenyl)pyrrolidin-1-yl)imidazo[1,2-a]pyridin-3-yl)(4-methylpiperazin-1-yl)methanone]",1000 to 10000
3,"CN(C)C(=O)Nc1cnc2ccc(N3CCCC3c3cc(F)ccc3F)cn12 (stereo not shown) [Example 11, 3-(6-(2-(2,5-difluorophenyl)pyrrolidin-1-yl)imidazo[1,2-a]pyridin-3-yl)-1,1-dimethylurea]",1000 to 10000

# Second part, the compound after the results:
row,IC50 [nM],SMILES
1,1000 to 10000,"CC1(S(=O)(=O)NC(=O)c2cnc3ccc(N4CCCCC4c4cc(F)cc5c4OCCO5)cn23)CC1 (single isomer, unassigned) [Example 52, 6-(2-(7-fluoro-2,3-dihydrobenzo[b][1,4]dioxin-5-yl)piperidin-1-yl)-N-((1-methylcyclopropyl)sulfonyl)imidazo[1,2-a]pyridine-3-carboxamide]"
2,1000 to 10000,"CCN(C)S(=O)(=O)NC(=O)c1cnc2ccc(N3CCCC3c3cc(F)ccc3O[C@@H]3CCOC3)cn12 (single isomer, unassigned) [Example 64]"
3,1000 to 10000,"CC(C)(C)S(=O)(=O)NC(=O)c1cnc2ccc(N3CCCC3c3cc(F)ccc3O[C@@H]3CCOC3)cn12 (single isomer, unassigned) [Example 66]"
4,1000 to 10000,"CCN(C)S(=O)(=O)NC(=O)c1cnc2ccc(N3CCCCC3c3cc(F)ccc3F)cn12 (single isomer, unassigned) [Example 70, 6-(2-(2,5-difluorophenyl)piperidin-1-yl)-N-(N-ethyl-N-methyl-sulfamoyl)imidazo[1,2-a]pyridine-3-carboxamide]"

# Same assay, conditions: bin with mixed units (lower bound nM, upper bound μM), read-out: TrkA inhibitory activity in-vitro IC50
row,SMILES,IC50 [nM]
1,"O=C(NC12CC3CC(CC(O)(C3)C1)C2)c1cnc2ccc(N3CCC[C@@H]3c3cc(F)ccc3F)cn12 [Example 23, 6-((R)-2-(2,5-difluorophenyl)pyrrolidin-1-yl)-N-((1r,3S,5R,7S)-3-hydroxyadamantan-1-yl)imidazo[1,2-a]pyridine-3-carboxamide]",500 to 1000
2,"CC1(O)CN(C(=O)c2cnc3ccc(N4CCC[C@@H]4c4cc(F)ccc4F)cn23)C1 [Example 26, (R)-(6-(2-(2,5-difluorophenyl)pyrrolidin-1-yl)imidazo[1,2-a]pyridin-3-yl)(3-hydroxy-3-methylazetidin-1-yl)methanone]",500 to 1000
3,"O=C(NN1CCCCC1)c1cnc2ccc(N3CCC[C@@H]3c3cc(F)ccc3F)cn12 [Example 27, (R)-6-(2-(2,5-difluorophenyl)pyrrolidin-1-yl)-N-(piperidin-1-yl)imidazo[1,2-a]pyridine-3-carboxamide]",500 to 1000
